pIC50: −log10 of the molar value.
Key:
[1] = target: calcineurin (Homo sapiens, UniProt Q08209); experiment: inhibition of calcineurin activity (PNPP dephosphorylation); format: biochemical; conditions: for inhibition of calcineurin activity: at concentrations below 50 μM; for pIC50: PNPP substrate, 30° C., 1 hour; for potency on calcineurin compared with bNOS: comparison of IC50 for calcineurin and bNOS
Protocol: Inhibition of calcineurin, a calmodulin-dependent enzyme (Klee, C. B., H. Ren, X. Wang [1998] J. Biol. Chem. 273:13367-13370), by marine-derived imidazoles and indoles was tested as an indirect means of assessing the effect of these compounds on calmodulin. […] Neither hamacanthin-A nor dragmacidin were able to inhibit calcineurin activity by more than 33% at concentrations below 50 μM.
Calcineurin activity was measured by the colorimetric method based on the dephosphorylation of p-nitrophenyl phosphate (PNPP) (Greenberg, S. S., J. Xie, J. J. Spitzer, J. F. Wang, J. Lancaster, M. B. Grisham, D. R. Powers, T. D. Giles [1995] Life Sci. 57:1949-1961) in a buffer of 0.5 mM MnCl2, 1 mM dithiothreitol, 50 mM tris base (pH 7.5), 0.05 mM CaCl2, and 10 μg/ml calmodulin (Sigma). Briefly, marine-derived compounds in ethanol were transferred to 96-well plates, air dried and resuspended in the working buffer. Calcineurin was added to a final concentration of 2.75 μg protein/ml and the enzyme allowed to equilibrate at 30° C. for 10 minutes prior to the addition of substrate. PNPP was added (final concentration≈50 mM) and the reaction mixture incubated at 30° C. for 1 hour. The optical density was measured at 405 nm in a Spectra II spectrophotometer.

[2] = target: T1, iNOS (murine macrophage RAW 264.7 cells) (Mus musculus, UniProt P29477); experiment: inhibition of whole cell iNOS activity in LPS/IFN-γ stimulated RAW 264.7 cells (nitrites, Griess reaction); format: cell-based; conditions: RAW264.7, 24 hours, average of 4 wells, read-out: iNOS Inhibition, % Inhibit
T1 construct: host or cells: RAW 264.7
Protocol: Resultant nitrites in the TCM were measured by the Griess reaction and compared to stimulated cells incubated in the absence of test compound (0% inhibition) and unstimulated cells (100% inhibition). Each point represents the average inhibition of 4 wells±standard deviation.
Inhibition of whole cell iNOS activity by hamacanthin-A, dragmacidin and dragmacidin-D was tested to determine the specificity of the NOS inhibitory actions of these compounds.
RAW 264.7 cells were obtained from the American Type Culture Collection (Rockville, Md.) and maintained in tissue culture medium (TCM) (RPMI 1640 medium containing 100 U/ml penicillin, 100 μg/ml streptomycin, 60 μg/ml L-glutamine, 18 mM HEPES, 0.05 mg/ml gentamicin; Life Technologies, Gaithersburg, Md.) and supplemented with 10% rehatuin fetal bovine serum (Intergen Co., Purchase, N.Y.). Cells were subcultured at 3-4 day intervals, and used within 20 passages from the initial stock culture.
Test compounds were diluted in ethanol, aliquoted into appropriate wells of a 96 well microtiter plate and allowed to air dry for 1 hour at room temperature. RAW 264.7 cells were then subcultured into each well at a density of 5×10^4 cells/well in 200 μl of TCM containing lipopolysaccharide (1 ng/ml; Sigma) and interferon-γ (2 units/ml; PharMingen, San Diego, Calif.). Plates were incubated at 37° C., 5% CO2 for 24 hours. 150 μl of the TCM from each well was transferred to a second microtiter plate, 100 μl Griess reagent added to this TCM and the color intensity determined as above. Viability of the cells was determined by the methods of Mossman (Mossman, T. [1983] J. Immunol. Methods 65:55-63). Briefly, 150 μl of TCM containing 3-[4,5-dimethylthiazol-2-yl]-2,5-diphenyltetrazolium bromide (MTT, 2.5 mg/ml; Sigma) was added to each well containing the RAW 264.7 cells and incubated at 37° C., 5% CO2 for 3 hours. The medium was removed from all wells and replaced with 200 μl of acidified isopropyl alcohol (0.2% HCl). The plates were shaken for 15 minutes and the presence of the blue formazan was detected using a Spectra II spectrophotometer set at 570 nm and with a 650 nm reference filter.

[3] = test system: rat cerebral bNOS; experiment: inhibition of bNOS activity (nitrite production, Griess reaction); format: biochemical; conditions: for bNOS Inhibition, % Inhib: 15 min, average of 4 wells; for pIC50: approximately, FIG. 1; for specificity/selectivity of bNOS inhibition: at the concentrations tested, conclusion in words
Protocol: Rat cerebral bNOS in working buffer was incubated with L-arginine and the nitrites produced after 15 minutes were measured using the Griess reaction. Results are presented as the % inhibition of bNOS activity as compared to a negative control (0% inhibition) and positive control (100% inhibition). Each point represents the average inhibition ± standard deviation of 4 wells.
Marine-derived imidazole and indole containing compounds were tested for their ability to inhibit rat cerebral NOS at a concentration range of 1.0 to 50 μM.
Evaluation of activity of bNOS was performed by measuring nitrite production using the Griess reaction (Greenberg, S. S., J. Xie, J. J. Spitzer, J. F. Wang, J. Lancaster, M. B. Grisham, D. R. Powers, T. D. Giles [1995] Life Sci. 57:1949-1961) following an incubation of purified bNOS with L-arginine according to the methods of Ohshima et al. (Ohshima, H., S. Oguchi, H. Adachi, S. Iida, H. Suzuki, T. Sugimura, H. Esumi [1992] Biochem. Biophys. Res. Comm. 183:238-244). All reactions were carried out in 96 well microtiter plates. Briefly, imidazole and indole compounds were tested in reaction buffer (80 mM HEPES, pH 7.3; 1.0 mM EDTA; 1.5 mM CaCl2) containing calmodulin (330 units/ml; Sigma Chemical Co.), dithiothreitol (1.3 mM), tetrahydrobiopterin (66 μM; Sigma), flavin adenine dinucleotide (16 μM; Sigma), and bovine brain nitric oxide synthase (1.67 units/ml; Sigma). The solutions were mixed and equilibrated at 37° C. for 2 minutes prior to the addition of L-arginine (113 μM; Sigma) and NADPH (200 μM; Sigma). Final reaction volume was 150 μl per well. The enzymatic reaction occurred at 37° C. for 15 minutes and nitrite formation detected by the addition of 100 μl of Greiss's reagent (1% sulfanilamide, 0.15% n-1-(naphthyl)-ethylenediamine dihydrochloride, 2.5% phosphoric acid; Sigma) and the color intensity determined by spectrophotometric absorbance at 540 nm (Spectra II; Tecan US Inc., Durham, N.C.).

SMILES	inhibition of calcineurin activity [1] [%]	inhibition at 2.5 µM [2] [%]	inhibition at 5 µM [2] [%]	inhibition at 10 µM [2] [%]	inhibition at 25 µM [2] [%]	inhibition at 50 µM [2] [%]	bNOS Inhibition, % Inhib ([3]; 1 μM) [%]	bNOS Inhibition, % Inhib ([3]; 5 μM) [%]	bNOS Inhibition, % Inhib ([3]; 10 μM) [%]	bNOS Inhibition, % Inhib ([3]; 50 μM) [%]	pIC50 [3]	specificity/selectivity of bNOS inhibition [3]	inhibitory effects on the production of NO (bNOS) ([3]; 1.0 to 50 μM)	pIC50 [1]	potency on calcineurin compared with bNOS [1]
O=C1NC(c2c[nH]c3cc(Br)ccc23)CN=C1c1c[nH]c2cc(Br)ccc12 (stereo not drawn) [Hamacanthin-A, hamacanthin-A]	≤ 33	2.6	-0.61	0.69	0.65	5.54	35.42	43.33	75.42	99.58	~5.12	able to specifically block the activity of bNOS			
O=C(c1nc(-c2c[nH]c3ccccc23)c[nH]1)c1c[nH]c2cc(O)ccc12 [Topsentin, topsentin]							5.08	5.47	-0.39	22.66		not able to selectively inhibit rat cerebral bNOS	minimal inhibitory effects		
CN1C[C@H](c2c[nH]c3c(Br)c(Br)cc(O)c23)NC[C@H]1c1c[nH]c2cc(Br)ccc12 (relative stereo) [Dragmacidin, dragmacidin]	≤ 33	-3.94	-8.44	-6.23	3.16	15.8	38.94	3.54	32.74	90.27	~4.70	able to specifically block the activity of bNOS			
CC(c1cnc(N)[nH]1)c1ccc(O)c2[nH]cc(-c3cnc(-c4c[nH]c5cc(Br)ccc45)c(=O)[nH]3)c12 (stereo not drawn) [Dragmacidin-D, dragmacidin-D]		-3.55	-3.42	-0.61	2.34	26.9	16.89	74.22	96.44	99.56	~5.40	able to specifically block the activity of bNOS		5.00	a more potent inhibitor of bNOS
Brc1ccc2c(-c3c[nH]c(-c4c[nH]c5ccccc45)n3)c[nH]c2c1 [Nortopsentin-C, nortopsentin-C]							20.16	9.88	16.05	98.77	~4.57	not able to selectively inhibit rat cerebral bNOS		4.94	a concentration lower than its IC50 for bNOS

Reference: patent US6087363A, “Use of imidazole and indole compounds as inhibitors of nitric oxide synthase” (Harbor Branch Oceanographic Institution, Inc., priority 1999, dated 2000)
